# Experimental data reported in PubChem BioAssay AID504539 (Broad Institute, 2011).
# Test system: Cell-based prion protein 5' UTR reporter, plate reader
# Assay: prion protein 5' UTR mRNA inhibitors – cell-based, plate reader, cherry-picked samples, dose response (AID 504539)
row,SMILES,AC50
1,C=CCn1c(SCc2c(C)noc2C)nc2ccccc2c1=O,851 nM
2,C=CC[n+]1c(-c2ccc(C)cc2)csc1Nc1ccc(NC(C)=O)cc1,3620 nM
3,CCOCCOC(=O)c1[nH]c2c(c1C)C(=O)CC(c1cccs1)C2 (stereo not drawn),1700 nM
4,CN(C)c1ccc(Nc2nc(N)c3ccccc3n2)cc1,562 nM
5,CN(C)c1ccc(NC(=S)c2ccccn2)cc1,222 nM
6,CC1=CC2OC3CC4OC(=O)C=CC=CC(=O)OCCC(C)C(O)C(=O)OCC2(CC1O)C4(C)C31CO1 (stereo not drawn),< 38 nM
7,COc1cc(NC(=O)c2cccs2)c(C(=O)OCC(=O)c2cc(C)n(-c3ccccc3)c2C)cc1OC,989 nM
8,COc1ccc(-c2cc(-c3cccs3)c(C#N)c(SCC(=O)NCc3ccco3)n2)cc1,1530 nM
9,COC(=O)c1[nH]c2c(c1C)C(=O)CC(c1cccc(OC)c1)C2 (stereo not drawn),715 nM
10,O=c1c2ccccc2cnn1-c1nc2ccccc2[nH]1,185 nM
11,Cc1ccc(C(=O)Nc2ncc(Cc3ccc(SC(F)F)cc3)s2)cc1,1560 nM
12,CCN1CCN(Cc2ccc(NC(=O)c3ccc(C)c(NC(=O)c4cncc(-c5cccs5)c4)c3)cc2C(F)(F)F)CC1,156 nM
13,COc1ccc(C(=O)/C=C/Nc2ccccn2)cc1,369 nM
14,COc1cccc(/C=N/Nc2ccc(C(=O)O)cc2)c1O,222 nM
15,COc1cc(C2C(C#N)=C(N)Oc3cc(N)ccc32)cc(OC)c1OC (stereo not drawn),614 nM
16,COC(=O)c1ccc(Oc2cc(C)nc(-n3nc(C)cc3C)n2)cc1,536 nM
17,COc1ccc(OC)c(N/C=C/C(=O)c2ccccc2)c1,558 nM
18,COC(=O)C1=C(C(=O)OC)SC2(S1)C(C(=O)OC)=C(C(=O)OC)Sc1c2ssc1=O,2620 nM
19,Cc1ccc(NC(=O)c2cc3ccccc3oc2=O)cc1S(=O)(=O)N(C)C,< 38 nM
20,COc1cc(SC)ccc1C(=O)Nc1nc2ccccc2[nH]1,< 38 nM
21,CN1CCN(c2ccc([N+](=O)[O-])c3no[n+]([O-])c23)CC1,2340 nM
22,Cc1c(C(=O)OC2CCCC2)[nH]c2c1C(=O)CC(c1ccco1)C2 (stereo not drawn),791 nM

row,SMILES,AC50
1,COc1ccccc1C(=O)Nc1nc2ccccc2s1,204 nM
2,N#Cc1c(NC(=O)CSc2ncn[nH]2)sc2c1CCCC2,303 nM
3,Cc1cc(C(=O)COC(=O)c2ccccc2O)c(C)n1CC1CCCO1 (stereo not drawn),< 38 nM
4,CC(=O)O[C@H]1C(=O)[C@@]2(C)C([C@H](OC(=O)c3ccccc3)[C@]3(O)C[C@H](OC(=O)[C@H](O)[C@@H](NC(=O)c4ccccc4)c4ccccc4)C(C)=C1C3(C)C)[C@]1(OC(C)=O)CO[C@@H]1C[C@H]2O (stereo partly drawn),160 nM
5,O=C(Nc1cccc(C(=O)O)c1)Nc1ccc2c(c1)OCO2,397 nM
6,CC1(C)CC[C@]2(C(=O)n3ccnc3)CC[C@]3(C)[C@H](C(=O)C=C4[C@@]5(C)C=C(C#N)C(=O)C(C)(C)[C@@H]5CC[C@]43C)[C@@H]2C1,808 nM
7,Cc1cc(C2=NNC(=NC3CC3)SC2)c(C)n1-c1ccccc1,< 38 nM
8,COC(=O)C12OCC34C(CC5C(C)=C(O)C(=O)CC5(C)C3C(O)C1O)OC(=O)C(OC(=O)C=C(C)C)C24 (stereo not drawn),< 38 nM
9,CC(=O)N(/N=C1\Sc2ccccc2C1=O)c1ccc(C)cc1C,4720 nM
10,O=C(CSc1nnc(-c2ccccc2)o1)Nc1ccccc1F,675 nM
11,Cc1ccc(-c2cn3cc(C)ccc3n2)cc1,113 nM
12,CC1=C(C(=O)Nc2ccc(CC(=O)NCc3ccc(OC(C)C)cc3)cc2)SCCO1,974 nM
13,COc1ccc2[nH]c(-c3cccc(F)c3)cc(=O)c2c1,1550 nM
14,O=C(O)CSCC(=O)Nc1ccc(C2CCCCC2)cc1,1560 nM
15,Cc1cccc(-n2ncc3c(N(C)C4CCCCC4)ncnc32)c1,796 nM
16,CNC(=O)Oc1ccc(-c2cn3cc(C)ccc3n2)cc1,556 nM
17,CCOc1ccc(/C=C2\SC(=S)N(CCC(=O)O)C2=O)cc1,277 nM
18,Cc1c(C(=O)OCC(C)C)[nH]c2c1C(=O)CC(c1ccco1)C2 (stereo not drawn),1260 nM
19,Clc1ccc(-n2ncc3c(N4CCCCCC4)ncnc32)cc1,795 nM
20,O=C1NC2C(O)C(O)C(O)C(O)C2c2cc3c(c(O)c21)OCO3 (stereo not drawn),1480 nM
21,COc1cc(-c2noc(C)c2/C=C/c2ccc(OC(C)=O)cc2)cc(OC)c1OC,555 nM
